Assay results: patent publication US20100093645A1, “SMAC Peptidomimetics and the Uses Thereof” (priority 2004, published 2010)
Square brackets hold non-standard residues; d marks the D form. Peptide text beside a SMILES is read from it. Abu = CC[C@H](N)C(=O)O

B1: mature Smac protein: second mitochondria-derived activator of caspases, mature polypeptide (protein, UniProt Q9NR28 22-239, looked up)
Diablo IAP-binding …: LCVPVVANFKKRCFSELIRPWHKTVTIGFGVTLCAVPIAQKSEPHSLSSEALMRRAVSLVTDSTSTFLSQTTYALIEAITEYTKAVYTLTSLYRQYTSLLGKMNSEEEDEVWQVIIGARAEMTSKHQEYLKLETTWMTAVGLSEMAAEAAYQTGADQASITARNHIQLVKLQVEEVHQLSRKAETKLAEAQIEELRQKTQEEGEERAESEQEAYLRED

How the values were obtained:
[1] = target: T1, human XIAP-BIR3 protein (residues 241-356) (Homo sapiens, UniProt P98170); test: biochemical
[2] = target: T1, human XIAP-BIR3 protein (residues 241-356); test: Competitive fluorescence polarization (FP-based) binding assay with SM5F probe; conditions: SM5 vs S9
Target sequence in this assay (P98170 241-356): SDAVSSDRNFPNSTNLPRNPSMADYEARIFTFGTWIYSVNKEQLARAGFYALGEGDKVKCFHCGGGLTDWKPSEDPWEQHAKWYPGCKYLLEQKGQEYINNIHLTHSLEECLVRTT

XIAP = XIAP (Homo sapiens, UniProt P98170); conditions: background statement; cited from earlier work
Sequence of XIAP (P98170 whole entry): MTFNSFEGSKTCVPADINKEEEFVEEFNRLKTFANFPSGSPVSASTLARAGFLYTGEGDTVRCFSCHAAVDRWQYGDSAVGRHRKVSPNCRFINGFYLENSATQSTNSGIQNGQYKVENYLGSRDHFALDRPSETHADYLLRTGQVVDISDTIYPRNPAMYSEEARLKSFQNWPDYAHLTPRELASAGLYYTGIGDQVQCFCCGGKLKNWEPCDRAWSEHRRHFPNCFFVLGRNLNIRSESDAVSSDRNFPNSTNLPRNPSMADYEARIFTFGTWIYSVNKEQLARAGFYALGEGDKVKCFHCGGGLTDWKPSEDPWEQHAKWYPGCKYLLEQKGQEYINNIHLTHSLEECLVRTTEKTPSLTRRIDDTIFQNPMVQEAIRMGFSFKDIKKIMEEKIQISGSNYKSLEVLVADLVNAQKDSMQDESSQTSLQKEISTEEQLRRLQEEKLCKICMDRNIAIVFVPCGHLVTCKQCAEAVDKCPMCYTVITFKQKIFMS

Molecule	IC50 [1] [nM]	Ki [1] [nM]	ratio of the IC50 values for unlabeled SM5 and S9 [2] [fold]	Kd (XIAP) [nM]
CC[C@H](N)C(=O)N[C@@H](CCCNC(=N)N)C(=O)N1CCC[C@H]1C(=O)N[C@@H](Cc1ccccc1)C(=O)N[C@@H](CCCCN)C(=O)O [SM5, AbuRPFK, reference compound] (H-[Abu]RPFK-OH; N-terminus and C-terminus assumed)	220 ± 10	75 ± 5	6.7	–
B1	–	–	–	420
